Values of other authors as cited in US20030114418A1, “Method for the treatment and prevention of pain and inflammation with glucosamine and a cyclooxygenase-2 selective inhibitor and compositions therefor” (Pharmacia Corporation, priority 2001, published 2003).

Assays:
[1] = system: knee osteoarthritis; conditions: patients with knee osteoarthritis, 1500 mg/day, 3 years
[2] = system: human chondrocytes
[3] = system: Cox-2

Compound	selectivity for the inhibition of Cox-2 versus Cox-1 [3]	other results
N[C@H]1C(O)O[C@H](CO)[C@@H](O)[C@@H]1O.O=S(=O)(O)O (stereo partly shown) [glucosamine sulfate]		joint-space loss [1]: no significant joint-space loss
CC(=O)N[C@H]1C(O)O[C@H](CO)[C@@H](O)[C@@H]1O (stereo partly shown) [N-acetylglucosamine]		effect on il-1beta-mediated activation of human chondrocytes [2]: prevent il-1beta-mediated activation of human chondrocytes
CC1(C)CC[C@]2(C(=O)O)CC[C@]3(C)C(=CC[C@@H]4[C@@]5(C)CC[C@H](O)C(C)(C)[C@@H]5CC[C@]43C)[C@@H]2C1 [oleanic acid]	not substantially more selective for the inhibition of Cox-2 than for Cox-1	
C[C@H]1[C@H](C)CC[C@]2(C(=O)O)CC[C@]3(C)C(=CC[C@@H]4[C@@]5(C)CC[C@H](O)C(C)(C)[C@@H]5CC[C@]43C)[C@H]12 [ursolic acid]	not substantially more selective for the inhibition of Cox-2 than for Cox-1	
